Paper PMC6268252, “Synthesis and Antiviral Activity of Conformational Analogues of Leucamide A” (Molecules, 2012)
Where two headings read alike, the source gives them in different places.

Columns and labels:
[1] = tested on: Influenza A virus H3N2 (A3 China/15/90); test: Inhibition of influenza A virus replication (virus-induced CPE) in MDCK cells; type: cell-based; conditions: influenza A H3N2 (A3 China/15/90); for activity against influenza A virus (in words): MDCK cells; for IC50: concentration required to reduce virus-induced CPE in MDCK cells by 50%
[2] = in vitro; conditions: dog
[3] = tested on: Influenza A virus H3N2 (A3 China/15/90); parameters: method as in PMID 16183283; conditions: previously reported active compound; read-out: IC50 against influenza A virus; cited from earlier work
[4] = tested on: several tumor cell lines; parameters: method as in PMID 12098321; conditions: cited from earlier work
[5] = tested on: influenza A virus, herpes simplex type 2 virus (HSV2), hepatitis B virus (HBV); parameters: method as in PMID 16183283, PMID 18663717; conditions: reported before; cited from earlier work

Row | SMILES | activity against influenza A virus (in words) [1] | CC50 [2] | IC50 [1] | IC50 [3] | cytotoxicity toward tumor cell lines (in words) [4] | antiviral activity (in words) [5]
1 | Cc1oc2nc1C(=O)N[C@@H](C)c1nc(co1)C(=O)NCC(=O)N[C@@H](C(C)C)c1nc-2cs1 [Compound 2] | inactive | > 273 µM |  |  |  | 
2 | Cc1oc2nc1C(=O)N[C@@H](C)c1nc(co1)C(=O)NCCC(=O)N[C@@H](C(C)C)c1nc-2cs1 [Compound 3] |  | > 265 µM | 163 µM |  |  | 
3 | Cc1oc2nc1C(=O)N[C@@H](C)c1nc(co1)C(=O)NCCCC(=O)N[C@@H](C(C)C)c1nc-2cs1 [Compound 4] |  | 595 µM | 115 µM |  |  | 
4 | Cc1oc2nc1C(=O)N[C@@H](C)c1nc(co1)C(=O)NCCCCC(=O)N[C@@H](C(C)C)c1nc-2cs1 [Compound 5] |  | 578 µM | 258 µM |  |  | 
5 | Cc1oc2nc1C(=O)N[C@@H](C)c1nc(co1)C(=O)NCCCCCC(=O)N[C@@H](C(C)C)c1nc-2cs1 [Compound 6] |  | 374 µM | 41 µM |  |  | 
6 | COc1ccccc1C(=O)N[C@H](c1nc(-c2nc(C(=O)O)c(C)o2)cs1)C(C)C [Compound 10] |  |  |  | 70 µM |  | 
7 | Cc1oc2nc1C(=O)N[C@@H](C)c1nc(co1)C(=O)N[C@@H](CC(C)C)C(=O)N1CCC[C@H]1C(=O)N[C@@H](C(C)C)c1nc-2cs1 [Leucamide A] | inactive | 787 µM |  |  | moderately cytotoxic | did not show any antiviral activity
8 | NC(=O)c1ncn([C@@H]2O[C@H](CO)[C@@H](O)[C@H]2O)n1 [Ribavirin, reference compound] |  | > 8200 µM | 16 µM |  |  | 
